Usually melting point stands for the temperature of the solid-liquid transition.

Drawing on patent US20060135785A1, “Alpha-phenyl acetanilide derivatives having an acat inhibiting activity and the therapeutic application thereof” (Pierre Fabre Medicament, priority 2002, published 2006), this text covers melting point and ED50 for 8 compounds.

For one data set, the system named is plasma cholesterol. Put plainly: Blood cholesterol-lowering activity in rats on hypercholesterolemic diet. Type of data set: in vivo, rat. Particulars: male rats, Altromin C 1061 hypercholesterolemic diet 4 days, dose that reduces the plasma cholesterol concentration by half compared with control animals. How it is done:
Male rats (160-180 g) were subjected, for 4 days, to an Altromin C 1061 hypercholesterolemic diet and treated in parallel orally with the compounds in suspension in a solution of 2% Tween 80 in distilled water.
On the 5th day, the animals not fasting are anaesthetized with ethyl ether, and bled out on EDTA via the abdominal aorta. The blood is immediately centrifuged and the plasma is stored at 4° C.
The plasma cholesterol is then assayed by the CHOD-PAP method (Boehringer Mannheim Ref. 237574). The 50% effective dose (ED50) corresponds to the dose that reduces the plasma cholesterol concentration by half compared with control animals.

Where [1] appears, read: Rattus norvegicus, po, 96 h, read-out: ED50.

Like-named read-outs stand apart in the source and are kept apart here.

For the compound `CCCCCCCCCCCCn1nnc(C(F)(C(=O)Nc2c(C)c(C)c(N)c(C)c2C)c2ccccc2)n1.Cl` (stereo not shown), the melting point came to 168 °C.
`CCCCCCCCCCCCn1nnc(C(C(=O)Nc2cc(C)c(O)c(C)c2C)c2ccccc2)n1` (single isomer, unassigned; (+)) [Compound 5, (+)-2′,3′,5′-Trimethyl-4′-hydroxy-α-(2-dodecyl-2H-5-tetrazolyl)-α-phenylacetanilide] came in with an ED50 with plasma cholesterol (oral) of 0.025 mg/kg.
For the compound `CCCCCCCCCCCCn1nnc(C(F)(C(=O)Nc2cc(C)c(O)c(C)c2C)c2ccccc2)n1` (single isomer, unassigned; (+)) [Compound 9, (+)-21,3′,5′-Trimethyl-4′-hydroxy-α-(2-dodecyl-2H-5-tetrazolyl)-α-fluoro-α-phenylacetanilide], the ED50 in the data set on plasma cholesterol (setting [1]) stood at 0.012 mg/kg.
As to `CCCCCCCCCCCCS(=O)(=O)[C@H](C(=O)Nc1cc(C)c(O)c(C)c1C)c1ccccc1` [Compound 1, (S)-2′,3′,5′-Trimethyl-4′-hydroxy-α-dodecylsulfonyl-α-phenylacetanilide], in the data set on plasma cholesterol (setting [1]), the ED50 turned out to be 0.25 mg/kg.
On the same count and under the same terms, the same measure for `CCCCCCCCCCCCS(=O)(=O)C(F)(C(=O)Nc1cc(C)c(O)c(C)c1C)c1ccccc1` (stereo not drawn) [Compound 3, 2′,3′,5′-Trimethyl-4′-hydroxy-α-dodecylsulfonyl-α-fluoro-α-phenylacetanilide]: 0.022 mg/kg.
Compound `CCCCCCCCCCCCn1nnc(C(C(=O)Nc2cc(C)c(O)c(C)c2C)c2ccccc2)n1` (stereo not drawn) [Compound 4, 2′,3′,5′-Trimethyl-4′-hydroxy-α-(2-dodecyl-2H-5-tetrazolyl)-α-phenylacetanilide] registered a melting point of 105 °C. Also, the ED50 in the data set with plasma cholesterol (setting [1]) is 0.029 mg/kg.
Taken in the same sequence, the figures for `Cc1cc(NC(=O)C(F)(c2ccccc2)c2nnn(CCCCCCCCCCCC(F)F)n2)c(C)c(C)c1O` (stereo not drawn) [Compound 10, 2′,3′,5′-Trimethyl-4′-hydroxy-α-[2-(12,12-difluoro-dodecyl)-2H-5-tetrazolyl]-α-fluoro-α-phenylacetanilide] were 96 °C and 0.029 mg/kg.
For the compound `CCCCCCCCCCCCS[C@H](C(=O)Nc1cc(C)c(O)c(C)c1C)c1ccccc1` [Eflucimibe, reference compound], the ED50 in the data set with plasma cholesterol (setting [1]) is 0.12 mg/kg.
